Experimental data taken from ChEMBL document CHEMBL1201862, “PubChem BioAssay data set” (2004).
Values belong to the molecule of their own block, whether it stands above or below them. Activity calls are given as the source filed them. Cut-off read from the data, not from the text of the source, for most assays here: actives have a measured EC50 and inactives only a lower limit.

Legend:
[1] = molecular target: Luciferin 4-monooxygenase (Photinus pyralis, UniProt P08659); assay: firefly luciferase enzyme inhibitors, dose response, biochemical, luminescence (AID 1891)
[2] = Luminescence Cell-Based Dose Confirmation HTS to Identify Inhibitors of Platelet Dense Granule Release. [Related pubchem assays: 1663 (Primary HTS), 1678 (Summary of Project)]; type: functional
[3] = cytotoxicity toward DRD oncogenic fibroblasts, dose response, cell-based, non-viral oncogenic, luminescence (AID 1934); type: functional; conditions: Homo sapiens
BJ [4] = assay: cells; type: functional, cell-based; conditions: Homo sapiens
BJ [5] = assay: cytotoxicity toward BJ-TERT-LT-ST fibroblasts, dose response, cell-based, RAS-independent, luminescence (AID 1935); type: functional; conditions: Homo sapiens;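 note: BJ fibroblasts immortalized with TERT plus LT and ST oncogenes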
BJ [6] = assay: cytotoxicity toward BJ-TERT fibroblasts, dose response, cell-based, RAS-independent, luminescence (AID 1933); type: functional; conditions: Homo sapiens
[7] = molecular target: T1, Zinc finger protein mex-5 (Caenorhabditis elegans, UniProt Q9XUB2); assay: MEX-5/TCR-2 RNA interaction inhibitors, dose response, biochemical, C. elegans, fluorescence polarization (AID 1960)
T1 sequence (Q9XUB2 whole entry): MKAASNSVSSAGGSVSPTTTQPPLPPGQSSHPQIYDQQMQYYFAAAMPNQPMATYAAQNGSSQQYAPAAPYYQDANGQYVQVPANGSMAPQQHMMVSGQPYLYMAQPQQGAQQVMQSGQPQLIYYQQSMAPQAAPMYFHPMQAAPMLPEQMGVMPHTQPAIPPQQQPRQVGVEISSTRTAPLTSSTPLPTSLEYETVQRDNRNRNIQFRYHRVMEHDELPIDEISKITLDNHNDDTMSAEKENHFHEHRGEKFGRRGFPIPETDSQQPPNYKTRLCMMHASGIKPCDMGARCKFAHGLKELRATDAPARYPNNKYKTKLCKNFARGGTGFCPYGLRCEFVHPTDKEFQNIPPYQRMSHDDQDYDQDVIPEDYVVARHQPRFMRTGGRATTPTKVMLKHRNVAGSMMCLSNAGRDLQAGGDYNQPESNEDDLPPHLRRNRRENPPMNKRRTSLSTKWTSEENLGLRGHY

[8] = molecular target: T2, RNA-binding protein pos-1 (Caenorhabditis elegans, UniProt G5EF15); assay: inhibitors of POS-1/mex-3 RNA binding, dose response, biochemical, fluorescence polarization (AID 1964);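 note: purified POS-1 fused to maltose binding protein made in E. coli; potency of compounds blocking POS-1 binding to fluorescent RNA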
T2 sequence (G5EF15 whole entry): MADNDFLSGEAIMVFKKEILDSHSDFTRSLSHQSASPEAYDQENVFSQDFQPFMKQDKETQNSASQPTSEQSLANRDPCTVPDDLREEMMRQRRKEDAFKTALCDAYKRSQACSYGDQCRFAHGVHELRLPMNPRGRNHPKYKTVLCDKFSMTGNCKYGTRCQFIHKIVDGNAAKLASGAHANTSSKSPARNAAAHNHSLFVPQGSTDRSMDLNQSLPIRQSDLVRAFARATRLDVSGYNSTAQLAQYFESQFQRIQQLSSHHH

Large T antigen = Large T antigen (Simian virus 40, UniProt P03070); type: functional, Betapolyomavirus macacae;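 note: Confirmatory-stage PubChem screen for compounds that inhibit SV40 T antigen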
[9] = molecular target: T3, Corticotropin-releasing factor receptor 2/Corticotropin-releasing factor-binding protein (Homo sapiens, UniProt P24387+Q13324); assay: activators of CRF receptor 2 with binding protein – uHTS hits, confirmation (AID 602473); type: functional; conditions: read-out: EC50_Mean
T3 sequence (Q13324 whole entry): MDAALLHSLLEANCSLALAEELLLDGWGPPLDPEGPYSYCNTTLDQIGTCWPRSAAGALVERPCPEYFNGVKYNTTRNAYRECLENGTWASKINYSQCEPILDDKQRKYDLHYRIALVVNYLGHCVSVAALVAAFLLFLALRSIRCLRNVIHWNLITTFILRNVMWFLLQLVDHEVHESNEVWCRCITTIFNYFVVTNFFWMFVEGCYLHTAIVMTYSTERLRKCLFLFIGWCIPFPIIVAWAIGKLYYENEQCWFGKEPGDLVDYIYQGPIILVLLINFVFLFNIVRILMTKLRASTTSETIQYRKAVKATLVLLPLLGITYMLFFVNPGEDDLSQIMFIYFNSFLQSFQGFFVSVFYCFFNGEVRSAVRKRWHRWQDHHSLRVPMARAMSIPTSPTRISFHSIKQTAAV
T3 sequence (P24387 whole entry): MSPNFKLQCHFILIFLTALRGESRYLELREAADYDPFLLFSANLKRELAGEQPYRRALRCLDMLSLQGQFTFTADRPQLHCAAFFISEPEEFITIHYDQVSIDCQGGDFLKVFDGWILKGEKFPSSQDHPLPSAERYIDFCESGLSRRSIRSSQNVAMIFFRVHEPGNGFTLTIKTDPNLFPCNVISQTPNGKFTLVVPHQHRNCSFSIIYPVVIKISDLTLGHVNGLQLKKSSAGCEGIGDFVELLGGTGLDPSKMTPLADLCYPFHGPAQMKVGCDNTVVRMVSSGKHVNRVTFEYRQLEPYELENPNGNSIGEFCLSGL

INS1 = assay: beta cell apoptosis inhibitors, cytokine rescue, dose response, luminescence, retest (AID 449756); type: functional, cell-based; conditions: Rattus norvegicus;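 note: cell death triggered by IL-1 beta plus TNF-alpha plus IFN-gamma mixture; protective hits raise ATP signal compared with cytokine alone wells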
[10] = inhibitors of SNCA 5'UTR-driven reporter translation, confirmation, H4 neuroglioma cells, luminescence (AID 1988); type: functional, cell-based
[11] = molecular target: T4, Heat shock factor protein 1 (Mus musculus, UniProt P38532); assay: HSF1 potentiators in luciferase reporter cells, confirmation, cell-based, NIH3T3, luminescence, dose retest (AID 435004); type: functional;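 note: stress induced by proteasome inhibitor MG132 added 30 min after compound; luciferase reporter driven by HSF1 response element in NIH3T3 cells; actives raise luminescence as potentiators of the MG132 stress response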
T4 sequence (P38532 whole entry): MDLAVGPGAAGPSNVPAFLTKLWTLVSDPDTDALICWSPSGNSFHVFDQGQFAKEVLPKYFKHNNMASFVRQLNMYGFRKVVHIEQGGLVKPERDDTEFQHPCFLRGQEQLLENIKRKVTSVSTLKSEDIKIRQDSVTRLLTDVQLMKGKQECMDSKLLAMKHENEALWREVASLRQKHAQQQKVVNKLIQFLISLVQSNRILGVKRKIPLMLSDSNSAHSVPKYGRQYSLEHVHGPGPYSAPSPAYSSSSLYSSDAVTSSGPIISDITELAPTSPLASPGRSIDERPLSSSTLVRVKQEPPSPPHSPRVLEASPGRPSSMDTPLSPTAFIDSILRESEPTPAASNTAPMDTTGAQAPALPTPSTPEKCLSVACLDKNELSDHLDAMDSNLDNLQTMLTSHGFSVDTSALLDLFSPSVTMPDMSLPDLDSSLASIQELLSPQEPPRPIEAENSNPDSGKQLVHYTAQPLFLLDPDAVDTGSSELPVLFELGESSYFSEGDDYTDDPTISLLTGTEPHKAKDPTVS

Large T antigen, sequence (P03070 whole entry): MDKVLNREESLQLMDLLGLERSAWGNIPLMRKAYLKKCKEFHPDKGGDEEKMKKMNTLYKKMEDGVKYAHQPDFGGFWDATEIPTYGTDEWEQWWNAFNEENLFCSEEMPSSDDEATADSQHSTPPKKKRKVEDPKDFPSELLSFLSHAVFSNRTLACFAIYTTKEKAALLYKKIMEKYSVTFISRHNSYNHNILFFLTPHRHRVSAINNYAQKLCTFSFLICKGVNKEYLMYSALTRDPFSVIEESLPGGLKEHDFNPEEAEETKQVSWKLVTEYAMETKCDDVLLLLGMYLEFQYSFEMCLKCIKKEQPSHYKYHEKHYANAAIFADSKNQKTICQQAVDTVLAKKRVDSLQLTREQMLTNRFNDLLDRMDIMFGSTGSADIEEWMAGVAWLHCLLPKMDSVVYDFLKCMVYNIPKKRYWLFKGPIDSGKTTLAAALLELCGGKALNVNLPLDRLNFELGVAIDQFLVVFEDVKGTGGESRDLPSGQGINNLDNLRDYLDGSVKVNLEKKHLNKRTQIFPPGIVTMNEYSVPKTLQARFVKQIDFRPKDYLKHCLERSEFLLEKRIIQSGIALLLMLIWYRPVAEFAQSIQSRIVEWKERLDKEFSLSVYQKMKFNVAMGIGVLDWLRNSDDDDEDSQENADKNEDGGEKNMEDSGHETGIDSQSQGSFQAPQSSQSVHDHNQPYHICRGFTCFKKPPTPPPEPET
Luciferin 4-monooxygenase, sequence (P08659 whole entry): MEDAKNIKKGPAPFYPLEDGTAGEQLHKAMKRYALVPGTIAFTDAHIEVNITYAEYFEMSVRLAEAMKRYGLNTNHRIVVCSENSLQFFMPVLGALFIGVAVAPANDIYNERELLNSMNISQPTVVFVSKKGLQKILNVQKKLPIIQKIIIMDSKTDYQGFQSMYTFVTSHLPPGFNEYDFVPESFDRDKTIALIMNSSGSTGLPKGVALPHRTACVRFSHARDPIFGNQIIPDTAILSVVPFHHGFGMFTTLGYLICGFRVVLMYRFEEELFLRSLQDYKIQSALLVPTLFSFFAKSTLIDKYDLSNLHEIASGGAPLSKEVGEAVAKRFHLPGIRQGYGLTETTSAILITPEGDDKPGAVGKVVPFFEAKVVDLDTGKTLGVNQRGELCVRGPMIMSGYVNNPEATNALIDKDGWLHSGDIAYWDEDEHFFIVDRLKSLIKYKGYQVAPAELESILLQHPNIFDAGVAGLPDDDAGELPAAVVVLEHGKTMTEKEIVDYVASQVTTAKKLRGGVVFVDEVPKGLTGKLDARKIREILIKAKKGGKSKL

SMILES: Cn1c(=O)c2c(nc(CN3CCOCC3)n2CC(=O)c2ccccc2)n(C)c1=O
EC50 [1]: > 112 µM (not active) | EC50 [2]: 39 µM (active)

SMILES: CC(C)(C)NC(=O)CN1CCN(C(=O)CCl)CC1
EC50 [3]: > 150 µM (not active) | EC50 (BJ [4]): > 150 µM (inconclusive) | EC50 (BJ [5]): > 150 µM (not active) | EC50 (BJ [6]): > 150 µM (not active)

SMILES: Cc1nnc(NC(=O)CSc2cn(CCNC(=O)c3ccccc3)c3ccccc23)s1
EC50 [1]: > 112 µM (not active) | EC50 [2]: 80 µM (active)

EC50 [7]: > 300 µM (not active) | EC50 [8]: > 300 µM (not active)
SMILES: O=C(OCC(=O)c1ccco1)c1ccc2ncsc2c1

SMILES: COc1cc(Cl)ccc1OCc1cc(C(=O)N2C[C@]3(C)C[C@H]2CC(C)(C)C3)no1
EC50 [1]: 27 µM (active) | EC50 [2]: > 112 µM (not active)

EC50 [7]: > 300 µM (not active) | EC50 [8]: > 300 µM (not active)
SMILES: Cc1c(C(=O)O)cccc1-n1c(C)cc(C=O)c1C

IC50 (Large T antigen): 48.6 µM (active)
SMILES: Cc1ccc(S(=O)(=O)CCC(=O)Oc2ccc3c(C)cc(=O)oc3c2)cc1

SMILES: O=C(C(Cc1ccccc1)n1cccc1)N1CCN(c2ncccn2)CC1 (stereo not drawn)
EC50 [1]: > 112 µM (not active) | EC50 [2]: > 112 µM (not active)

SMILES: Cc1ccc(-c2sc(-c3ccccc3)nc2CC(=O)Nc2ccccc2F)cc1
EC50 [9]: > 53 µM (inactive) | AC50 (INS1): 2.27 µM (active)

SMILES: Cc1c(Cl)cccc1NC(=O)Nc1ccc(C(=O)N2CCCC2)cc1
EC50 [1]: 1.94 µM (active) | EC50 [2]: 30.4 µM (active)

SMILES: Oc1nc(/C=C/c2ccccc2F)nc2ccccc12
EC50 [3]: 2.25 µM (active) | EC50 (BJ [4]): 45.2 µM (inconclusive) | EC50 (BJ [5]): 29.3 µM (inconclusive) | EC50 [10]: 7.23 µM (inconclusive) | EC50 (BJ [6]): 2.12 µM (active)

EC50 [9]: > 53 µM (inactive)
SMILES: CCN1/C(=C2\SC(=S)N(Cc3ccccc3)C2=O)Sc2ccccc21

IC50 (Large T antigen): 53.8 µM (active)
SMILES: COc1cc(SC)ccc1C(=O)N1CCN(Cc2ccccc2)CC1

EC50 [9]: > 53 µM (inactive)
SMILES: COc1ccc(NC(=O)CN(C)C(=O)CSc2ccc3c(c2)OCCO3)cc1

EC50 [7]: > 300 µM (not active) | EC50 [8]: > 300 µM (not active)
SMILES: Cc1ccc(S(=O)(=O)N(CCCN2CCCC2=O)Cc2cc3c(C)ccc(C)c3[nH]c2=O)cc1

EC50 [7]: > 300 µM (not active) | EC50 [8]: 67.9 µM (active)
SMILES: COc1ccc(NC(=O)CN2CCC(NC(=O)C3CCCCC3)CC2)c([N+](=O)[O-])c1

SMILES: Cc1cccc(-c2cnn(-c3ccccc3)c2N)c1
EC50 [1]: 46 µM (active) | EC50 [2]: 31.7 µM (active)

SMILES: Cc1ccnc(NC(=O)c2ccoc2C)c1
EC50 [1]: 17.5 µM (active) | EC50 [2]: 3.51 µM (active)

EC50 [7]: 30.8 µM (active) | EC50 [8]: 7.37 µM (active)
SMILES: CCOC(=O)C1CCN(C(=O)c2ccc3c(c2)NC(=O)/C(=C\c2ccc(C)cc2)S3)CC1

SMILES: CSc1ccc(C(=O)C2CCCN(S(=O)(=O)c3c(C)noc3C)C2)cc1 (stereo not drawn)
EC50 [1]: > 112 µM (not active) | EC50 [2]: > 112 µM (not active)

SMILES: O=C(CCN1C(=O)/C(=C\c2ccccc2F)SC1=S)N1CCCCC1
EC50 [3]: 15.5 µM (active) | EC50 (BJ [4]): 14.4 µM (active) | EC50 (BJ [5]): > 75 µM (not active) | EC50 (BJ [6]): 15.8 µM (active)

SMILES: CC(=O)c1cccc(-n2nnnc2SCC(=O)N2CCCC2)c1
EC50 [1]: > 112 µM (not active) | EC50 [2]: > 112 µM (not active)

EC50 [7]: > 150 µM (inconclusive) | EC50 [8]: 119 µM (inconclusive)
SMILES: COc1ccc(CC(=O)NNC2=Nc3cccc4cccc2c34)cc1

SMILES: Cc1ccc(CSC(Nc2ccc(F)cc2)=C(C#N)C#N)cc1
EC50 [3]: 76.4 µM (active) | EC50 [9]: > 53 µM (inactive) | EC50 (BJ [4]): > 150 µM (not active) | EC50 (BJ [5]): > 75 µM (not active) | EC50 (BJ [6]): 14.1 µM (active) | AC50 (INS1): 3.19 µM (active)

EC50 [7]: 36.2 µM (active) | EC50 [11]: > 260 µM (inactive) | EC50 [8]: 59.1 µM (active)
SMILES: O=C(Nc1ccccc1O)c1cccc(S(=O)(=O)Nc2ccccc2O)c1

EC50 [9]: 24.2 µM (active)
SMILES: Cc1cccc(-n2c(C)cc(/C=C3\C(=N)N4N=C(CC(C)C)SC4=NC3=O)c2C)c1

IC50 (Large T antigen): 71.2 µM (active)
SMILES: Cc1cc2c(n1-c1ccc(C(=O)O)cc1)CCCCC2

EC50 [9]: > 53 µM (inactive)
SMILES: Cc1ccc(CN2CCN(/N=C/C(Br)=C\c3ccccc3)CC2)cc1

SMILES: Cc1ccc(/C=N/NC(=O)c2nn(C)cc2Cl)cc1
EC50 [1]: 19.9 µM (active) | EC50 [2]: 16.6 µM (active)
